# In PMC11714206, “Massively Parallel Screening of Toll/Interleukin‐1 Receptor (TIR)‐Derived Peptides Reveals Multiple Toll‐Like Receptors (TLRs)‐Targeting Immunomodulatory Peptides” (Advanced Science, 2024):
# “And” between values parts separate entries of the source, which are not always exact repeats. Identical values can stand only once.
# Molecular target: T1, MyD88^TIR (Homo sapiens, UniProt Q99836)
# T1 construct: MyD88 (residues 148–296); 6xHis; made in house; host or cells: E. coli BL21 (DE3)
# T1 sequence (Q99836 148-296): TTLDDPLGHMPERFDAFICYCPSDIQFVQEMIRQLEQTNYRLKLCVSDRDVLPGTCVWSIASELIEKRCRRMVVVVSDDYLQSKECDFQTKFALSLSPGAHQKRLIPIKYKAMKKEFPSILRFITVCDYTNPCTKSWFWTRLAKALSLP
# Assay: T‐Surf phage library (P8 and P3) selection against MyD88^TIR, four rounds, NGS read counts
# Format: binding
# Conditions: for P8_MyD88 Rank (after) / P8_MyD88 Rank (before): P8 library; for P3_MyD88 Rank (after) / P3_MyD88 Rank (before): P3 library; for Population: 4th round of selection against MyD88 TIR, share of NGS reads
# Summary of the method: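 P8 and P3 T‐Surf libraries panned against plate-coated TIR domains (5 µg mL^−1), 1 h binding at RT, acid elution and TG1/helper-phage amplification per round. After four rounds, pools were PCR-barcoded and sequenced (NovaSeq, 100 bp paired-end, Phred ≥30); peptides ranked by read counts.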
# [1] = selection against MyD88, rank by count after grouping
# [2] = selection against MyD88, rank by count before grouping
# [3] = P8_MyD88: rank by count after grouping
# [4] = P8_MyD88: rank by count before grouping
# [5] = P8_MyD88: rank by NGS read count after grouping
# [6] = P8_MyD88: rank by NGS read count before grouping
# [7] = 4R selection against MyD88, rank after grouping
# [8] = 4R selection against MyD88, rank before grouping
# [9] = selection against MyD88, rank after grouping
# [10] = selection against MyD88, rank before grouping
# [11] = selection against MyD88 TIR, rank by count after grouping
# [12] = selection against MyD88 TIR, rank by count before grouping
# [13] = P3_MyD88: rank by count after grouping
# [14] = P3_MyD88: rank by count before grouping
# [15] = P3_MyD88 pool: P3 T-Surf phage library
# [16] = P8_MyD88 pool: P8 T-Surf phage library
sequence,measurement,setting,value
LGYHWVDWEDLLSIEE,P8_MyD88 Rank (after),[1],730
same,P8_MyD88 Rank (before),[2],3235
LGYHWVDWEYCVGIED,Rank (after),[3],479
same,Rank (before),[4],3233
LGYHWVDWGCFVGIAD,Rank (after),[5],958
same,Rank (before),[6],3232
LGYHWVVWEYFVGIED,P8_MyD88 Rank (after),[7],594
same,P8_MyD88 Rank (before),[8],3231
LGYISIVRGYFVGIER,P8_MyD88 Rank (after),[9],486
same,P8_MyD88 Rank (before),[10],3337
LGYKRIDWEYFVGIED,P8_MyD88 Rank (after),[9],573
same,P8_MyD88 Rank (before),[10],3354
LGYPWIDWEYYVGIED,P8_MyD88 Rank (after),[9],519
same,P8_MyD88 Rank (before),[10],3226
LGYQCIDWEYFVDIED,P8_MyD88 Rank (after),[7],644
same,P8_MyD88 Rank (before),[8],3332
LGYQGIDGEYFVGIED,P8_MyD88 Rank (after),[7],617
same,P8_MyD88 Rank (before),[8],3328
LGYQLIDWEYFVGIEN,Rank (after),[5],937
same,Rank (before),[6],3319
LGYQWIAGEYFVGIED,Rank (after),[5],1021
same,Rank (before),[6],3320
LGYQWIDWEFFVGIED,P8_MyD88 Rank (after),[1],756
same,P8_MyD88 Rank (before),[2],3321
LGYQWIEWEYFVGIED,P8_MyD88 Rank (after),[11],250
same,P8_MyD88 Rank (before),[12],1186
LGYQWNDWEYFVGIED,Rank (after),[5],957
same,Rank (before),[6],3326
LGYQWNEWEYLVGIEE,P8_MyD88 Rank (after),[9],538
same,P8_MyD88 Rank (before),[10],3327
LGYRLMFWDYFVGIVD,P8_MyD88 Rank (after),[9],548
same,P8_MyD88 Rank (before),[10],3225
LGYRWGDWEYFVGIEE,Rank (after),[5],1017
same,Rank (before),[6],3222
LGYRWIVWEYFVGIED,Rank (after),[3],400
same,Rank (before),[4],3224
LGYRWLDGEYFGGIED,Rank (after),[3],462
same,Rank (before),[4],3223
LGYYWNDWEYVVGIEE,Rank (after),[5],884
same,Rank (before),[6],3218
LIRAPSVHDFRGFVGI,P3_MyD88 Rank (after),[7],672
same,P3_MyD88 Rank (before),[8],2369
LKAESCRQALEKSGKR,P3_MyD88 Rank (after),[7],631
same,P3_MyD88 Rank (before),[8],2533
LKCCYPYFWSKLRYAM,P3_MyD88 Rank (after),[7],612
same,P3_MyD88 Rank (before),[8],2460
LKCGEPYFWSKLRYAM,Rank (after),[13],137
same,Rank (before),[14],2407
LKCGEPYFWSKLRYSI,P3_MyD88 Rank (after),[9],578
same,P3_MyD88 Rank (before),[10],2406
LKEEHCHQALEKAGKL,Rank (after),[13],460
same,Rank (before),[14],2535
LKEESWRRAQEKAGKL,P3_MyD88 Rank (after),[9],531
same,P3_MyD88 Rank (before),[10],2536
LKGGDPYFWSKLRYTM,Rank (after),[13],159
same,Rank (before),[14],2531
LKGGDSYFWSKQPYAL,Rank (after),[13],385
same,Rank (before),[14],2529
LKVDSWRQALEKAGNL,Rank (after),[13],117
same,Rank (before),[14],2469
LKVEAGVRRWKKRAN,Rank (after),[13],114
same,Rank (before),[14],1074
LKVEGWRRALEKAGNL,Rank (after),[13],467
same,Rank (before),[14],2470
LKVEIWLQTLEKAEKP,Rank (after),[13],440
same,Rank (before),[14],2472
LKVENWRQALEQAGKL,P3_MyD88 Rank (after),[11],203
same,P3_MyD88 Rank (before),[12],2526
LKVENWRQAMEKAGKL,Rank (after),[13],176
same,Rank (before),[14],2525
LKVERWRQSLEKAGKL,P3_MyD88 Rank (after),[11],217
same,P3_MyD88 Rank (before),[12],2522
LKVESCRQALEKTGKL,Rank (after),[13],181
same,Rank (before),[14],2473
LKVESWHQAREKAGKL,Rank (after),[13],400
same,Rank (before),[14],2518
LKVESWRDALTAAANLSGW,P3_MyD88 Rank (after),[9],489
same,P3_MyD88 Rank (before),[10],2475
LKVESWRQALAKAGRL,P3_MyD88 Rank (after),[11],197
same,P3_MyD88 Rank (before),[12],2486
LKVESWRQALDELVL,P3_MyD88 Rank (after),[11],261
same,P3_MyD88 Rank (before),[12],1077
LKVESWRQALEKADKL,Population,[15],0.00408%
LKVESWRQALEKAGKL,P8_MyD88 Rank (after),[11],211
same,P8_MyD88 Rank (before),[12],326
LKVESWRQALEKAGKLRYAM,P3_MyD88 Rank (after),[1],707
same,P3_MyD88 Rank (before),[2],2496
LKVESWRQALEKAGN,Rank (after),[13],126
same,Rank (before),[14],1081
LKVESWRQALGKAGKL,Population,[15],0.00349%
LKVESWRQALKERLP,Population,[15],0.00378%
LKVESWRQAQEKAGKL,Population,[15],0.00349%
LKWEGPYFWRKMRYAL,Rank (after),[13],477
same,Rank (before),[14],2457
LKWGDERFWERLVYVM,P8_MyD88 Rank (after),[11],191
same,P8_MyD88 Rank (before),[12],250
LKWGDPAYRLALHYRDFN,P3_MyD88 Rank (after),[9],500
same,P3_MyD88 Rank (before),[10],2445
LKWGDPWFWDRLRFA,Population,[15],0.00437%
LKWGDPYFCSKLRYPM,Rank (after),[13],403
same,Rank (before),[14],2415
LKWGDPYFWSKLLYSM,P3_MyD88 Rank (after),[11],247
same,P3_MyD88 Rank (before),[12],2423
LKWGDPYLCSKLRYAM,P3_MyD88 Rank (after),[1],726
same,P3_MyD88 Rank (before),[2],2442
LKWGEPYCWSKLRYAM,Rank (after),[13],127
same,Rank (before),[14],2450
LKWGEPYFCSKLRYAM,Rank (after),[13],476
same,Rank (before),[14],2449
LKWGGSCLSIKLAYAM,Rank (after),[13],445
same,Rank (before),[14],2411
LKWGSVFLEQTALCD,P3_MyD88 Rank (after),[11],222
same,P3_MyD88 Rank (before),[12],2409
LLAHEISKNMKIFATI,P3_MyD88 Rank (after),[9],523
same,P3_MyD88 Rank (before),[10],2262
LNVEGWRQALEKAGKL,Rank (after),[13],131
same,Rank (before),[14],2401
LNVESWRKALEKAGKL,P3_MyD88 Rank (after),[11],230
same,P3_MyD88 Rank (before),[12],2403
LNVESWRQALERAGKL,Rank (after),[13],187
same,Rank (before),[14],2402
LNWGDPYFWSKLRYAM,Population,[15],0.00291%
LQNQWELALTKKTKLV,P3_MyD88 Rank (after),[1],733
same,P3_MyD88 Rank (before),[2],2336
LQNQWKLALNKVANLP,Rank (after),[13],417
same,Rank (before),[14],2361
LQNQWKLALTNSGFHTFRDND,P3_MyD88 Rank (after),[7],585
same,P3_MyD88 Rank (before),[8],2346
LRYDDPWFWEKLVFAM,P8_MyD88 Rank (after),[11],237
same,P8_MyD88 Rank (before),[12],416
LSEESWRQALEKAGKL,P3_MyD88 Rank (after),[11],202
same,P3_MyD88 Rank (before),[12],2375
LSRVPGVHDFRGLVDI,Rank (after),[13],441
same,Rank (before),[14],2377
LSRVPSGHVIPGFVAI,P3_MyD88 Rank (after),[9],529
same,P3_MyD88 Rank (before),[10],2378
LSRVPSVHDFRGFATI,Rank (after),[13],111
same,Rank (before),[14],682
LSRVPSVHDFRGLMSI,Rank (after),[13],416
same,Rank (before),[14],2389
LSRVPSVHEFRGFVGV,P3_MyD88 Rank (after),[9],573
same,P3_MyD88 Rank (before),[10],2392
LSRVTSVHDARGLGGI,P3_MyD88 Rank (after),[9],564
same,P3_MyD88 Rank (before),[10],2395
LTDVANILGYHWIDWE,Rank (after),[3],104
same,Rank (before),[4],110
same,Population,[16],0.02%
LTEEIVNHILKRLAEL,Rank (after),[3],170
same,Rank (before),[4],200
LVAHEISKKKKIFATI,Population,[15],0.00291%
LVAHEISKKLKIFATM,P3_MyD88 Rank (after),[1],709
same,P3_MyD88 Rank (before),[2],2288
LVAHEISKKLKNFPTI,P3_MyD88 Rank (after),[9],518
same,P3_MyD88 Rank (before),[10],2289
LVAHEISKKMKIFATF,Population,[15],0.00291%
LVAHEISKKMKIFETI,Population,[15],0.00466%
LVAHEISKKMKIFRP,Rank (after),[13],413
same,Rank (before),[14],2302
LVAHEISKKRKIFATS,P3_MyD88 Rank (after),[9],511
same,P3_MyD88 Rank (before),[10],2306
LVAHEISKMLKIFETI,P3_MyD88 Rank (after),[1],681
same,P3_MyD88 Rank (before),[2],2284
LVAHEISKMMKVFATI,P3_MyD88 Rank (after),[1],694
same,P3_MyD88 Rank (before),[2],2285
LVAHEISNNMKIFATI,Rank (after),[13],143
same,Rank (before),[14],2283
LVAHEITKKLKSFATI,P3_MyD88 Rank (after),[7],641
same,P3_MyD88 Rank (before),[8],2309
LVAHEITPSLFKAIKE,Rank (after),[13],161
same,Rank (before),[14],676
LVAHELLKKMKIFATI,P3_MyD88 Rank (after),[11],232
same,P3_MyD88 Rank (before),[12],2275
LVAHELSNKMKSFATI,Rank (after),[13],386
same,Rank (before),[14],2276
LVAHQISKTIKIFATI,Rank (after),[13],389
same,Rank (before),[14],2314
LVAHRFSKKMKIFATM,P3_MyD88 Rank (after),[7],621
same,P3_MyD88 Rank (before),[8],2315
LVAHRMSKKMKNVATI,P3_MyD88 Rank (after),[9],513
same,P3_MyD88 Rank (before),[10],2316
LVALEISKKMTIFATI,P3_MyD88 Rank (after),[11],228
same,P3_MyD88 Rank (before),[12],2269
LVAMKLPRACLKRLK,P3_MyD88 Rank (after),[9],505
same,P3_MyD88 Rank (before),[10],2318
LVANEISKKIKIFAII,P3_MyD88 Rank (after),[9],533
same,P3_MyD88 Rank (before),[10],2319
LVAQEISKIKTMLATT,P3_MyD88 Rank (after),[9],561
same,P3_MyD88 Rank (before),[10],2317
LVAQEISKKMKIFATI,Population,[15],0.00495% and 0.00466%
LVSHEISKKVKIFATI,P3_MyD88 Rank (after),[7],638
same,P3_MyD88 Rank (before),[8],2265
LVYHWIDWEYFVGIED,Population,[16],0.0108%
LVYHWIDWVYFVGIED,P8_MyD88 Rank (after),[7],659
same,P8_MyD88 Rank (before),[8],3211
